Experimental findings from patent US11638427B2, “Methods and compositions for altering secondary metabolites in plants” (Impello Biosciences, Inc, priority 2020, dated 2023) are described below.

Assay [1] has as its system high-CBD hemp varieties Stormy Daniels and BaOX. As to the kind of experiment: Field foliar applications of MDJ, MeJA and CJ on high-CBD hemp, cannabinoid analysis. Format: in vivo, Cannabis spp. As to conditions: 7.5 mM foliar, four applications every 14 days in flowering. As for the experimental part: However, MDJ is not known to have any significant bioactivity in planta and is not an endogenously produced phytohormone in cannabis, so it was unknown whether MDJ would afford the same functionality as MeJA. Similarly, CJ has likewise been relatively under-investigated as a plant elicitor despite being a decarboxylation product of Jasmonic Acid. Here, the effect of MDJ and CJ were analyzed (in addition to MeJA) in order to determine any difference in the effect of these treatments on field-grown high-CBD hemp varieties.
A hemp field experiment was conducted during the flowering phase of plant development in a private research field located in North Carolina. Sixty (60) plants from two distinct plant variety populations, Stormy Daniels and BaOX were selected for the trial. Each group of 60 plants was randomly divided into three groups of 20 plants and labeled accordingly to indicate the treatment group (T1, T2, T3). All plants were cultivated identically and subjected to approximately the same environmental conditions. Control, untreated plants were taken from the same field. Plants were treated according to treatment group, and each treatment group was subjected to four (4) applications of its respective treatment, with the first treatments applied on what was considered to be the first day of the flowering phase and repeated then again every successive 14 days up until just prior to harvest. Treatments were as follows: Control group=Control, Treatment 1=MDJ, Treatment 2=MeJA, Treatment 3=CJ.
All treatments were prepared in a stock (concentrated, non-aqueous) form by Impello Biosciences in their lab in Loveland, Colo. and labelled respectively prior to the start of the experiment. All treatments were prepared at a high stock concentration that allowed dilution by the applicator with 2 liters of water to a final 7.5 mM concentration of active ingredient (i.e., MeJA, MDJ, or CJ) for each treatment; 15-mL centrifuge tubes were used as preparation and storage vessels for each of the treatments. Preparation of the stock solutions ensured that the applicator could store the solutions prior to use at 4° C. to minimize degradation and allow for dilution immediately prior to use. In the stock containers, 2 mL of TWEEN®-20 was added to each respective elicitor compound as an emulsifier in order to reach a final oil-in-water emulsion once diluted with a concentration of 7.5 mM active ingredient and 0.1% surfactant (i.e., TWEEN®-20) v/v.
Plants were grown to maturity and 5 plants from each treatment and control group were sampled on Sep. 23, 2019. Care was taken to ensure samples were similar in appearance and spatial location between plants to minimize unintended variance in sample quality. The apical cola for each plant was harvested, and specifically, the top 3″ of the main cola. Yield data was not collected in this study, but no obvious differences in plant size or appearance were noted. Samples were submitted for chemical analysis (Avazyme, Inc, NC).
All models were linear models fit with Group (treatment) as the independent variable and the response variable was the corresponding compound. Data was filtered and comparison between treatments were conducted using the emmeans package and Tukey HSD for post-hoc corrections. Statistical significance was defined by a level of significance of p<0.05 in the Tukey test. Total cannabinoids included CBN, Δ9-THC, CBDV, CBG, CBD, CBC, CBDA, CBGA, THCA, and THCV. Total THC and total CBD were calculated by accounting for the additional weight of the carboxyl group in the acidic forms and adding those to the neutral/non-acidic forms.

Assay [2] has as its system marijuana variety Lemon Creamsicle. As to the kind of experiment: Foliar spray of CJ or MDJ on high-THC marijuana in greenhouse, cannabinoid analysis. The class given is in vivo, Cannabis spp. As to conditions: 7.5 mM foliar spray every 14 days, four treatments. How it is done:
Applicant's previous experiments investigated the effects of jasmonate-type elicitors MeJA, MDJ, and CJ on hemp (high fiber) and high-CBD, (low-THC) varieties of Cannabis. […] Here, the effects of MDJ and CJ application on a high-THC variety in a controlled environment was investigated. High-THC, low-CBD marijuana variety “Lemon Creamsicle” (LC), was grown in a greenhouse setting. LC was used as a plant model due to its historically consistent metabolite profile in the greenhouse environment, making it a stable, known, and reliable variety.
A four-block plant trial was implemented with a population of N=12 plants and treatment group sizes of n=4. The treatment and control groups were defined as follows: Control=water+0.1% TWEEN®-20 aqueous foliar spray, Treatment 1=[7.5 mM] CJ+0.1% TWEEN®-20 aqueous foliar spray, Treatment 2=[7.5 mM] MDJ+0.1% TWEEN®-20 aqueous foliar spray. A standardized concentration of [7.5 mM] for both CJ and MDJ applications was chosen due to its performance in Applicant's past research. All treatment solutions were prepared the day of the application in equal volumes from pre-measured quantities of the stock materials to ensure consistency, i.e., appropriate volumes of CJ or MDJ were combined with appropriate volumes of TWEEN®-20 for each experimental treatment, stored in a sealed centrifuge tube, and diluted in the appropriate amount of water immediately prior to application. Separate sprayers were used for each treatment and control sprays to avoid cross-contamination.
All plants in the trial were produced as asexual clone stock taken from the same mother plant at the same time to ensure homogeneity. All plants were rooted and grown in accordance with the production practices typical to this greenhouse operator prior to plant selection for the experiment. Due to the layout of the cultivation system, which features immovable hydroponic “pots” that house the plant throughout the entire flowering (i.e., reproductive) phase, all plants included in the experiment were selected from a set section of the greenhouse after final transplant into the hydroponic system and grouped in a complete randomized block design accordingly.
After defining the plants to include in the experiment, which were organized in two (2) rows of six (6) plants side-by-side in the hydroponic system, the experimental blocks were defined as groups of three plants, and a research randomizer tool (randomizer.org) was used to generate a randomized arrangement of plants in each group. Using a blocked design in this setting helped account for the immovable nature of the plants and the slight, if any, environmental differences (like natural sunlight, shading from other plants, and corner/edge effect) that existed in the small experimental area. Blocking the experimental arrangement also allowed for improved statistical analysis and resolution considering the small sample size and close proximity of the experimental plants.
After labelling each plant in the experiment with the appropriate group label (Control, T1 [CJ], or T2 [MDJ]), the plants were allowed to grow normally between treatment applications, which were performed every 14 days for a total of four (4) treatments throughout the flowering cycle, which lasted approximately eight (8) weeks. The first treatment occurred seven (7) days after the onset of the flowering cycle, which was dictated by day-length control. Care was taken with each treatment application to minimize overspray onto non-target neighboring plants, and physical barriers were temporarily installed between plants during treatment sprays to aid in this effort. These barriers were removed following treatment sprays when the foliage was no longer visibly wet from the treatment and/or control foliar sprays. […]

In another assay the test system is oyster mushroom. Description: Fungal plug growth on jasmonate-infused PDA plates. As to conditions: all concentrations (1 mM, 4.25 mM, 10 mM) in PDA; 72 hours and 10 days. Format: cell-based. As for the experimental part: (§1) MDJ (TCI, CAS No.: 24851-98-7) and CJ were infused into potato dextrose agar (PDA, VWR Cat No.: 90003-494) petri dishes (100×15 mm VWR, Cat No: 25384-094) at concentrations ranging from 1 mM, 4.25 mM, and 10 mM. Each treatment was prepared using a technical grade stock solution of pure chemical (CJ or MDJ) diluted with TWEEN®-20 (VWR, CAS No.: […]). Culturable oyster mushroom and seedling mold served to create fungal mycelial plugs using a sterile 1 mL pipette tip (Eppendorf, Cat No.: 022491458) held upside down. The tips were used to make circle excisions (i.e., fungal plugs) from a mycelial mat grown on PDA with no biochemical infusions. Fungal pugs were then transferred to PDA infused with varying concentrations of CJ or MDJ, and control plates (no CJ or MDJ infusion) to monitor fungal growth at room temperature over time.

For a further assay, the system named is seedling mold. Description: Fungal plug growth on jasmonate-infused PDA plates. Format: cell-based, Trichoderma ghanense. As to conditions: all concentrations (1 mM, 4.25 mM, 10 mM) in PDA; 72 hours and 10 days. How it is done: as §1
To compare the efficacy of MDJ and MeJA at inhibiting the same seedling mold as used in the experiment above, a second experiment was conducted using PDA plates infused with either MDJ or MeJA at different concentrations. All plates were generated and inoculated as described above and incubated at room temperature under identical conditions. Shown in FIGS. 9A-9C are plates of seedling mold 72 hours post fungal inoculation. Control plates are shown on the top row, followed by concentrations of MeJA (left) and MDJ (right) in duplicate at 1 mM (FIG. 9A), 4.25 mM (FIG. 9B), and 10 mM (FIG. 9C). […] Subsequent sequence analysis identified the “seedling mold” as Trichoderma ghanense.

With `CC/C=C\CC1=C(C)CCC1=O` [CJ, cis-jasmone], in assay [1], the “CBDA increase relative to the control group” value amounted to 23.61%, the “THCA increase relative to the control group” value was found to be 27.23%, the “Total CBD increase relative to the control group” value is listed as 23.64% and the “Total Cannabinoids increase relative to the control group” value amounted to 22.92%. In addition, the “Total THC increase relative to the control group” value in assay [1] was determined as 27.09%. Further, in assay [2], the “CBGA average relative percent increase compared to the Control group” value is recorded as 11.22%, the “THCA average relative percent increase compared to the Control group” value was found to be 1.13%, the “Total Cannabinoids average relative percent increase compared to the Control group” value worked out at 1.17% and the “Total THC average relative percent increase compared to the Control group” value was determined as 1.03%. In addition, the “Oyster mushroom fungal growth compared to control” value with oyster mushroom was “showed inhibition”. Moreover, in the assay with seedling mold, the “seedling mold growth compared to control” value was “showed inhibition”.
